The source of these data is US9329170B2, “Single cell gene expression for diagnosis, prognosis and identification of drug targets” (The Board of Trustees of the Leland Stanford Junior …, priority 2009, dated 2016).

The test relates to murine breast cancer stem cells. Nature of the test: clonogenic ability of murine breast cancer stem cells. The format is cell-based. The settings on record: short, 24 hour exposure to the inhibitor; p<0.02, t test. How it is done:
Many of these genes have been linked to self renewal and cancer. These include the insulin growth factor binding partner IGFBP3, the HOX family members HOXA3, HOXA5, ME1S1 as well as transcription factors like ETS1, ETS2, RUNX2 and STAT3. It was tested whether the transcription factor STAT3 is a bona fide cancer stem cell regulator. STAT3 plays a role in the maintenance of both ES cells and HSCs. […] Next, when we examined immunochemistry analysis of breast tumors the STAT3 positive cells tended to be concentrated on the invasive edge of the cancer and the protein was not seen in the more differentiated-looking cells in the interior parts of tumors. Finally, there are small molecule inhibitors of STAT3. Such inhibitors can be tested in cancer stem cell models. The effect of the STAT3 inhibitor cucurbitacin on the clonogenic ability of murine breast cancer stem cells was tested.

Turning to cucurbitacin, the “reduction of the number of colonies” value is recorded as about 50%.
